From ChEMBL document CHEMBL1201862, “PubChem BioAssay data set” (2004) come the findings set out here.

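Grown in 96-well plates, cells were treated for 48 hours with each compound at five concentrations. Insufficient inhibition: endpoint recorded as highest concentration tested. GI50 marks 50% less growth.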 Active and inactive are the calls of the source. Rule as the data show it: active = GI50 up to about 1.1 µM and inactive = higher. Where a SMILES comes first, the peptide text is derived from it. [ ]: non-standard residue; d: D form. The star is where a group is joined. ξ: configuration not given here. NMeF = CN[CH](Cc1ccccc1)C(=O)O; ξNMe2Val = CC(C)C(C(=O)*)N(C)C; NMeV = CN[CH](C(=O)O)C(C)C; OtBu = CC(C)(C)O*

Some test systems named below: RXF 631; HOP-18; DMS-273; LXFL 529; DLD-1; M19-MEL; SNB-78; DMS-114; XF498.
What all share (test): NCI tumour cell line growth inhibition, 48 h

Take `Oc1nnc(CNc2ccc(Cl)cc2Cl)c2ccccc12`: the GI50 is > 100 µM (inactive) in the assay with RXF 631; 23.1 µM (inactive) with HOP-18; 19.5 µM (inactive) in the assay with DMS-273; 17.1 µM (inactive) with LXFL 529; 21.2 µM (inactive) in the assay on DLD-1; 33 µM (inactive) in the assay on M19-MEL. In addition, the results for the GI50 in the assay with SNB-78 and in the assay on DMS-114 were 62.7 µM (inactive) and 13.9 µM (inactive), respectively.

`CCOC(=O)C1(C(=O)OCC)CC=C(C)CC12C(=O)Nc1ccccc12` (centres undefined): the GI50 with HOP-18, in the assay with DMS-273, with LXFL 529, with DLD-1, with XF498 and in the assay with M19-MEL was > 100 µM (inactive) each time. For the same compound, the GI50 with DMS-114 is > 100 µM (inactive).

As to `N#[N+]c1ccccc1Sc1ccc(Cl)cc1`, the GI50 in the assay on RXF 631 was 67.9 µM (inactive); with DMS-273 it was > 100 µM (inactive); in the assay with LXFL 529 it was > 100 µM (inactive); with DLD-1, > 100 µM (inactive); with XF498, > 100 µM (inactive); with M19-MEL, > 100 µM (inactive). Besides, the GI50 was > 100 µM (inactive) in the assay with SNB-78 and 48.1 µM (inactive) in the assay with DMS-114.

Consider `C[C@]12CC(C=O)C(=O)C(O)=C1CC[C@@H]1C2CC[C@@]2(C)C1CC[C@]2(C)O` (some centres undefined), for which the GI50 was 25.6 µM (inactive) in the assay with RXF 631; 21.6 µM (inactive) with DMS-273; 16.6 µM (inactive) in the assay on LXFL 529; 8.55 µM (inactive) in the assay on DLD-1; 18.2 µM (inactive) in the assay with XF498; 20.1 µM (inactive) in the assay with M19-MEL. Further, the GI50 in the assay on SNB-78 and in the assay on DMS-114 was 16.5 µM (inactive) throughout.

Turning to `COC(=O)C12C3C4C1C1C2C3C41I` (centres undefined), the GI50 with RXF 631, in the assay with HOP-18, in the assay on LXFL 529, with DLD-1, in the assay on XF498 and in the assay on M19-MEL was > 100 µM (inactive) each time. The GI50 in the assay on SNB-78 and with DMS-114 was > 100 µM (inactive) each time.

For `NC(=O)N/N=C(\CC1OC(=O)c2ccccc21)c1ccc([N+](=O)[O-])cc1` (centres undefined), the GI50 with DMS-273 was 28.1 µM (inactive); in the assay on LXFL 529 it was 27.9 µM (inactive); with DLD-1 it was 22.4 µM (inactive); in the assay on XF498 it was 26.9 µM (inactive); with M19-MEL it was 26.5 µM (inactive).

Take `C/C(=C1/CCC/C(=C(/C)c2ccccc2)C1=O)c1ccccc1`: the GI50 with HOP-18 was > 100 µM (inactive); with DMS-273 it was 32 µM (inactive); with LXFL 529, 43.1 µM (inactive); in the assay with DLD-1, 43.4 µM (inactive); with XF498 it was 30.6 µM (inactive); in the assay with M19-MEL, 24.9 µM (inactive). In addition, the GI50 in the assay on SNB-78 is 36.5 µM (inactive); in the assay on DMS-114, 21.7 µM (inactive).

In the case of `CCc1cc(Cc2cc(Cl)c(NC(=O)C(=O)C3NC(=O)NC3=O)c(CC)c2)cc(Cl)c1NC(=O)C(=O)C1NC(=O)NC1=O` (centres undefined), the GI50 is > 100 µM (inactive) in the assay on HOP-18; 20.4 µM (inactive) with DMS-273; 45.1 µM (inactive) with LXFL 529; 51.3 µM (inactive) in the assay with M19-MEL; 75.7 µM (inactive) in the assay on SNB-78; 26.9 µM (inactive) in the assay with DMS-114.

For `CCn1c(=O)c2ccccc2n2c(=O)c3cc4ccccc4cc3nc12`, the GI50 is > 100 µM (inactive) in the assay with DMS-273; > 100 µM (inactive) in the assay on LXFL 529; > 100 µM (inactive) with DLD-1; 15.8 µM (inactive) in the assay with XF498; > 100 µM (inactive) with M19-MEL; 39.8 µM (inactive) in the assay with SNB-78. For the same compound, the GI50 in the assay with DMS-114 is > 100 µM (inactive).

For `O=c1c2ccccc2nc(-c2ccccc2)n1NCC1(O)OCC(O)C(O)C1O` (centres undefined), the GI50 was > 100 µM (inactive) in the assay with HOP-18; 60.5 µM (inactive) in the assay with DMS-273; > 100 µM (inactive) in the assay on LXFL 529; > 100 µM (inactive) in the assay on DLD-1; 49.8 µM (inactive) in the assay on M19-MEL; > 100 µM (inactive) in the assay on SNB-78. In addition, the GI50 in the assay on DMS-114 was > 100 µM (inactive).

For the compound `O=S1(=O)COc2ccccc2-c2ncncc21`, the GI50 with RXF 631, in the assay with HOP-18, with LXFL 529, in the assay with DLD-1, with M19-MEL and with SNB-78 was > 100 µM (inactive) each time. For the same compound, the GI50 with DMS-114 is > 100 µM (inactive).

Take `COc1cc2cnc3c4ccccc4ccc3c2cc1OC`: the GI50 in the assay with LXFL 529, in the assay on DLD-1, with XF498, with M19-MEL, in the assay on SNB-78 and in the assay on DMS-114 was > 100 µM (inactive) each time.

As to `CC(C)N1CCC2(CC1)NNc1ncccc1-n1cccc12`, the GI50 in the assay with HOP-18, in the assay on DMS-273, in the assay with DLD-1, in the assay with XF498, in the assay on M19-MEL and in the assay with SNB-78 was > 100 µM (inactive) throughout. Besides, in the assay on DMS-114, the GI50 was > 100 µM (inactive).

Turning to `CN(C)/C=N\c1ccn(CCO)c(=O)n1`, the GI50 in the assay with RXF 631, in the assay with HOP-18, with DMS-273, with LXFL 529, with DLD-1 and in the assay with M19-MEL was > 100 µM (inactive) throughout. Besides, the GI50 with SNB-78 and in the assay with DMS-114 was > 100 µM (inactive) throughout.

In the case of `CC(=O)NC1=C(NCC(C)C)C(=O)c2ccccc2C1=O`, the GI50 with HOP-18 was 12.8 µM (inactive); in the assay on DMS-273, 14.4 µM (inactive); with LXFL 529, 16.1 µM (inactive); in the assay on DLD-1, 19 µM (inactive); in the assay with XF498, 14 µM (inactive); with M19-MEL it was 18.7 µM (inactive). For the same compound, the GI50 was 31.1 µM (inactive) with SNB-78 and 14.7 µM (inactive) in the assay on DMS-114.

For the compound `COC(=O)C1Cc2c(n(Cc3ccccc3)c3ccccc23)C(CCC(=O)O)N1C(C)C` (centres undefined), the GI50 in the assay on RXF 631, in the assay with HOP-18, with DMS-273, in the assay on LXFL 529, in the assay on DLD-1 and in the assay with M19-MEL was > 100 µM (inactive) in each case. Besides, the GI50 with SNB-78 and in the assay with DMS-114 was > 100 µM (inactive) in each case.

For `CCCCCCCCCCC(O)[C@H]1CCC(C2CC[C@H]([C@H](O)CCCCCCCCCCC(O)CC3=CC(C)OC3=O)O2)O1` (some centres undefined), the GI50 with RXF 631 was 2.01 µM (inactive); in the assay with DMS-273, 1.6 µM (inactive); with LXFL 529 it was 2.54 µM (inactive); with DLD-1, 3.67 µM (inactive); with M19-MEL, 2.22 µM (inactive); in the assay with SNB-78, 2.32 µM (inactive). Moreover, in the assay on DMS-114, the GI50 is < 0.01 µM (active).

Take `Cc1ccc(S(=O)(=O)N2CCCCC2CCO)cc1` (centres undefined): the GI50 with HOP-18, in the assay with DMS-273, in the assay on LXFL 529, in the assay with DLD-1, in the assay on M19-MEL and in the assay with SNB-78 was > 100 µM (inactive) in each case. The GI50 with DMS-114 is > 100 µM (inactive).

As to `O=C(Nc1c(O)[nH]c(=S)[nH]c1=O)c1ccc2ccccc2n1`, the GI50 in the assay on RXF 631, in the assay on HOP-18, in the assay on LXFL 529, with DLD-1, in the assay on M19-MEL and in the assay with SNB-78 was > 100 µM (inactive) in each case. The GI50 in the assay with DMS-114 is > 100 µM (inactive).

Turning to `CCC(Oc1ccc(OC)c2c1C(=O)CCC2)C(=O)O` (centres undefined), the GI50 in the assay with DMS-273, with LXFL 529, in the assay with DLD-1, in the assay on XF498, in the assay with M19-MEL and in the assay on SNB-78 was > 100 µM (inactive) each time. Moreover, the GI50 with DMS-114 is > 100 µM (inactive).

Regarding `NCCCSCC(=O)O`, the GI50 with DMS-273, in the assay on LXFL 529, in the assay on M19-MEL, with SNB-78 and in the assay with DMS-114 was > 100 µM (inactive) throughout.

For `COc1ccc(/C(Cl)=C(\c2ccc(OCCN(C)C)cc2)c2ccc(OC(=O)C(C)(C)C)cc2)cc1`, the GI50 in the assay on DMS-273 is 5.07 µM (inactive); with LXFL 529 it was 14 µM (inactive); in the assay on DLD-1, 13.6 µM (inactive); in the assay on XF498, 11.5 µM (inactive); in the assay with M19-MEL, 13.7 µM (inactive); with SNB-78, 16.1 µM (inactive). The GI50 in the assay on DMS-114 is 12.2 µM (inactive).

As to `O=c1cc(-c2ccccc2)oc2cc(OCCCCCCCCCCOc3ccc4c(=O)cc(-c5ccccc5)oc4c3)ccc12`, the GI50 in the assay on RXF 631, in the assay with HOP-18, with DMS-273, with LXFL 529, in the assay on XF498 and in the assay on M19-MEL was > 100 µM (inactive) each time. Also, the GI50 with SNB-78 and in the assay with DMS-114 was > 100 µM (inactive) each time.

In the case of `CC[C@]12C=CCN3CCC4(c5cc([C@@]6(C(=O)OC)CC7CN(CCc8c6[nH]c6ccccc86)C[C@@H]6CCC[C@H]76)c(OC)cc5N(C)C4[C@](O)(C(=O)OC)C1OC(C)=O)C32` (some centres undefined), the GI50 in the assay on LXFL 529 is 0.257 µM (active); in the assay on DLD-1 it was 0.494 µM (active); in the assay on M19-MEL it was 0.267 µM (active); in the assay on SNB-78, 0.237 µM (active); with DMS-114 it was 0.225 µM (active).

As to `CC(C)C(C(=O)N(C)C(Cc1ccccc1)C(=O)N(C)C(C(=O)N(C)C(C(=O)N1CCCC1C(=O)OC(C)(C)C)C(C)C)C(C)C)N(C)C` (centres undefined) (ξNMe2Val-[NMeF][NMeV][NMeV]P-OtBu; configuration not given here), the GI50 in the assay with DMS-273 is 21 µM (inactive); with LXFL 529, 31.8 µM (inactive); in the assay on XF498 it was 30.8 µM (inactive); in the assay with M19-MEL it was 78.3 µM (inactive); with DMS-114, 31.7 µM (inactive).
